Measured values reported in patent US20100093811A1 (priority 2007, published 2010).
pIC50: −log10 of the molar value. Where a name gives a salt, the structure may show the parent alone. Read-outs that look alike come from different tables or passages of the source.

Columns and labels:
wild-type HIV-1 protease = wild-type HIV-1 protease (Human immunodeficiency virus type 1 group M subtype B, UniProt P04585); test: Assay for inhibition of microbial expressed HIV protease; assay type: biochemical
Outline: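 E. coli-expressed protease (5 pM) preincubated with inhibitor 30 min at room temperature in 50 mM sodium acetate pH 5.5, 100 mM NaCl, 0.1% BSA. Substrate Val-Ser-Gln-Asn-(betanapthyl)Ala-Pro-Ile-Val at 440 micromolar, 1 h at 30° C; acid-quenched, product peak area by C18 HPLC gives inhibition.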

[1] = system: acute HIV infection of T-lymphoid cells; test: Assay for inhibition of HIV replication (spread assay); assay type: cell-based, HIV-1; conditions: Human immunodeficiency virus 1, T-lymphoid; read-out: Spread - IC95
Protocol: • Assay for Inhibition of HIV Replication
Assays for the inhibition of acute HIV infection of T-lymphoid cells were conducted in accordance with Vacca, J. P. et al., Proc. Natl. Acad. Sci. USA 1994, 91: 4096.

[2] = wild-type HIV-1 protease expressed in E. coli, peptide substrate, pH 5.5, read-out: Enzyme Inhibition - IC50

## Cc1ccc(S(=O)(=O)N(CCC(C)C)[C@H](CO)CC(C)CCNC(=O)[C@@H](N)C(c2ccccc2)c2ccccc2)cc1 (stereo partly drawn) [Example B1, (2S)-2-amino-N-((5S)-6-hydroxy-3-methyl-5-{(3-methylbutyl)[(4-methylphenyl)-sulfonyl]amino}hexyl)-3,3-diphenylpropanamide]
wild-type HIV-1 protease; [2]
  pIC50: 9.29
[1]
  IC95: 500 nM

## CC[C@@H](CCC[C@@H](CO)N(CCC(C)C)S(=O)(=O)c1ccc(N)cc1)NC(=O)[C@@H](NC(=O)OC)C1c2ccccc2Oc2ccccc21 [Example F11, methyl [2-({(1S,5S)-5-[[(4-aminophenyl)sulfonyl](3-methylbutyl)amino]-1-ethyl-6-hydroxyhexyl}amino)-2-oxo-1-(9H-xanthen-9-yl)ethyl]carbamate]
wild-type HIV-1 protease; [2]
  pIC50: 10.68
[1]
  IC95: 38 nM

## COC(=O)N[C@H](C(=O)N[C@H](CCC[C@@H](CO)N(C(C)C)S(=O)(=O)c1ccc(N)cc1)C1CC1)C(c1ccccc1)c1ccccc1 [Example I8, N-{(1R,5S)-5-[[(4-aminophenyl)sulfonyl](isopropyl)amino]-1-cyclopropyl-6-hydroxyhexyl}-Nα-(methoxycarbonyl)-β-phenyl-L-phenylalaninamide]
wild-type HIV-1 protease; [2]
  pIC50: 9.46
[1]
  IC95: 43 nM

## CC(C)N([C@H](CO)CCCC(C)(C)NC(=O)[C@@H](N)Cc1ccccc1Cl)S(=O)(=O)c1ccc(N)cc1 [Example L10, N-{(5S)-5-[[(4-aminophenyl)sulfonyl](isopropyl)amino]-6-hydroxy-1,1-dimethylhexyl}-2-chloro-L-phenylalaninamide hydrochloride]
wild-type HIV-1 protease
  pIC50: 8.49
[1]
  IC95: 241 nM

## CCCN([C@H](CO)CCC[C@H](CC)NC(=O)[C@@H](NC)C(c1ccccc1)c1ccccc1)S(=O)(=O)c1ccc(CO)cc1 [Example J38, N-{(1S,5S)-1-ethyl-6-hydroxy-5-[{[4-(hydroxymethyl)phenyl]sulfonyl}(propyl)amino]hexyl}-Nα-methyl-β-phenyl-L-phenylalaninamide]
wild-type HIV-1 protease; [2]
  pIC50: 10.01
[1]
  IC95: 34 nM

## COC(=O)N[C@@H](Cc1ccccc1Cl)C(=O)N[C@@H](C)CCC[C@@H](CO)N(C(C)C)S(=O)(=O)c1ccc(CO)cc1 [Example G10, 2-chloro-N-{(1S,5S)-6-hydroxy-5-[{[4-(hydroxymethyl)phenyl]sulfonyl}(isopropyl)amino]-1-methylhexyl}-Nα-(methoxycarbonyl)-L-phenylalaninamide]
wild-type HIV-1 protease; [2]
  pIC50: 9.41
[1]
  IC95: 49 nM

## COC(=O)N[C@H](C(=O)N[C@@H](C)CCC[C@@H](CO)N(CC1CC1)S(=O)(=O)c1ccc(N)cc1)C(c1ccccc1)c1ccccc1 [Example G7, N-{(1S,5S)-5-[[(4-aminophenyl)sulfonyl](cyclopropylmethyl)amino]-6-hydroxy-1-methylhexyl}-Nα-(methoxycarbonyl)-β-phenyl-L-phenylalaninamide]
wild-type HIV-1 protease; [2]
  pIC50: 10.62
[1]
  IC95: 15 nM

## COC(=O)N[C@@H](Cc1ccccc1Cl)C(=O)N[C@H](CCC[C@@H](CO)N(CC(C)C)S(=O)(=O)c1ccc(CO)cc1)C1CC1 [Example I1, 2-chloro-N-{(1R,5S)-1-cyclopropyl-6-hydroxy-5-[{[4-(hydroxymethyl)phenyl]sulfonyl}-(isobutyl)amino]hexyl}-Nα-(methoxycarbonyl)-L-phenylalaninamide]
wild-type HIV-1 protease; [2]
  pIC50: 9.20
[1]
  IC95: 155 nM

## CCN([C@H](CO)CCC[C@@H](NC(=O)[C@@H](NC(=O)OC)C(c1ccccc1)c1ccccc1)C(F)(F)F)S(=O)(=O)c1ccc(N)cc1 [Example H4, N-[(1R,5S)-5-[[(4-aminophenyl)sulfonyl](ethyl)amino]-6-hydroxy-1-(trifluoromethyl)hexyl]-Nα-(methoxycarbonyl)-β-phenyl-L-phenylalaninamide]
wild-type HIV-1 protease
  pIC50: 9.76
[1]
  IC95: 29 nM

## COC(=O)N[C@H](C(=O)N[C@@H](C)CCC[C@@H](CO)N(CCC(C)C)S(=O)(=O)c1ccc(CO)cc1)C(c1ccccc1)c1ccccc1 [Example J4, N-{(1S,5S)-6-hydroxy-5-[{[4-(hydroxymethyl)phenyl]sulfonyl}(3-methylbutyl)amino]-1-methylhexyl}-Nα-(methoxycarbonyl)-β-phenyl-L-phenylalaninamide]
wild-type HIV-1 protease; [2]
  pIC50: 11.15
[1]
  IC95: 6 nM

## CC[C@@H](CCC[C@@H](CO)N(CCC(C)C)S(=O)(=O)c1ccc(CO)cc1)NC(=O)[C@@H](NC(=O)OC)C(c1ccccc1)c1ccccc1 [Example J1, N-{(1S,5S)-1-ethyl-6-hydroxy-5-[{[4-(hydroxymethyl)phenyl]sulfonyl}(3-methylbutyl)amino]hexyl}-Nα-(methoxycarbonyl)-β-phenyl-L-phenylalaninamide]
wild-type HIV-1 protease; [2]
  pIC50: 10.82
[1]
  IC95: 9 nM
